The target in one assay is T1, TDP-43 (Homo sapiens, UniProt Q13148).
T1 sequence (Q13148 whole entry): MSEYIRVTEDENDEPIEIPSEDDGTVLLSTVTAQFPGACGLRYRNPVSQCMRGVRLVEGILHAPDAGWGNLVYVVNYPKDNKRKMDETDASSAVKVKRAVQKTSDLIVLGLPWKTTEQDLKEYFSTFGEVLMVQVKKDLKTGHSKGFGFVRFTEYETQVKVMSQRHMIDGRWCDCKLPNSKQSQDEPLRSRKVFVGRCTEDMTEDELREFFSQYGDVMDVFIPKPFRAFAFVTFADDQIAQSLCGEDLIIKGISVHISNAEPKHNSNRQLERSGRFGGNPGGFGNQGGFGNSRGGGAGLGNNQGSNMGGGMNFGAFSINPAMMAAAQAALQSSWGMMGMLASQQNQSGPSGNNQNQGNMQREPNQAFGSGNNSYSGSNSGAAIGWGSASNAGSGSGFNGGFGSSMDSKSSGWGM
Test: not given
As to conditions: cited from earlier work.
Take `COc1ccc(-c2cc(NCCCN(C)C)c3ccccc3n2)cc1` [Compound I]: the “caspase-7 cleavage of TDP-43” value is on record as “promoted”.

In a further assay the target is TDP-43 1-260 (Homo sapiens, UniProt Q13148). The experiment in a line: TDP-43 alpha-screen assay with bt-TAR32. Type of assay: binding. The following applies: bt-TAR32 0.125 nM; 3 h at room temperature; read-out: Activity (μM) in the TDP-43-DNA alpha-screen assay. In general terms: In Alpha technology, singlet oxygen from a donor bead excites a nearby acceptor bead.
Chain of TDP-43 1-260 (Q13148 1-260): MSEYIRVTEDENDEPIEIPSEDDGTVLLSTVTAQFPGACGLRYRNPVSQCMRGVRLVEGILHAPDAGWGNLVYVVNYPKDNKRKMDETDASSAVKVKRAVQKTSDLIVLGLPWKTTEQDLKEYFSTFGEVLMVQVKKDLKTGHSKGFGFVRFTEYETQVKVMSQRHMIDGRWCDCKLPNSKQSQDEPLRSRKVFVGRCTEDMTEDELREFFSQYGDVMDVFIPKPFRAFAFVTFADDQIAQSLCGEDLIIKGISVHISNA
Description: Alpha-screen assay. […] Briefly, assays contained TDP-43 1-260 (15 ng/mL, 0.27 nM), 10 mg/mL of both streptavidin donor beads and anti-GST acceptor beads with various concentrations of bt-TAR32 (˜18 to +14 in the HIV1 LTR) and test compound in a final volume of 20 mL of 25 mM Tris, 0.1% CHAPS, pH 7.4 in white, opaque low volume 384-well plates. After 3 h incubation at room temperature, the AlphaScreen signal was measured using a Synergy 2 plate reader (Biotek, Winooski, VT). […] Nonspecific binding was determined in the presence of 10 mM bt-TDP43 and was less than 10% of total binding. IC50 values were obtained from nonlinear regression fits of the data to a one-site binding model using Graph Pad Prism, version 5.0 (GraphPad Software, San Diego, CA). Comparison of competitive inhibition and mixed type inhibition models were evaluated using the F-test on global fits of the data also in Graph Pad Prism, version 5.0.
Regarding `COc1ccc(-c2cc(NCC3CN(C)CCO3)cc(-c3ccc(N4CCN(C)CC4)cc3)n2)cc1` (stereo not shown) [Example 56], the IC50 was found to be 3.24 µM.

On to `COc1ccc(-c2cc(NCC3CCCN3)cc(-c3ccc(N4CCC(C)CC4)cc3)n2)cc1` (stereo not shown) [Example 57], for which the IC50 was found to be 2.85 µM.

For the molecule `COc1ccc(-c2cc(NC3CC4CCC(C3)N4C)cc(-c3ccc(N4CCN(C)CC4)cc3)n2)cc1` (stereo not shown) [Example 58], the IC50 worked out at 2.85 µM.

As for `COc1ccc(-c2cc(NCCCN(C)C)cc(-c3ccc(N4CCOCC4)cc3)n2)cc1` [Example 59], the IC50 is 2.04 µM.

In the case of `COc1ccc(-c2cc(NC3CCNCC3(F)F)cc(-c3ccc(N4CCN(C)CC4)cc3)n2)cc1` (stereo not shown) [Example 60], the IC50 stood at 11 µM.

`COc1ccc(-c2cc(NCCCN3CCCCC3)cc(C3=CCNCC3)n2)cc1` [Example 61]: the IC50 is 1.87 µM.

For `COc1ccc(-c2cc(NCCCN(C)C)cc(-c3ccc(C[C@@H](N)C(=O)O)cc3)n2)cc1` [Example 62], the IC50 came to 1.85 µM.

In the case of `COc1ccc(-c2cc(NCC(F)(F)CN)cc(-c3ccc(N4CCN(C)CC4)cc3)n2)cc1` [Example 63, N-(3-amino-2,2-difluoropropyl)-2-(4-methoxyphenyl)-6-(4-(4-methylpiperazin-1-yl)phenyl)pyridin-4-amine], the IC50 came out at 1.49 µM.

As for `COc1ccc(-c2cc(/N=N\C3CCNCC3)cc(-c3ccc(N4CCNCC4)cc3)n2)cc1` [Example 64], the IC50 was 1.48 µM.

Turning to `COc1ccc(-c2cc(NCCCN3CCC4NCCC43)cc(-c3ccc(N4CCNCC4)cc3)n2)cc1` (stereo not shown) [Example 65], the IC50 was 1.32 µM.

Consider `COc1ccc(-c2cc(NCCCOCCCN)cc(-c3ccc(N4CCNCC4)cc3)n2)cc1` [Example 66], for which the IC50 was determined as 1.2 µM.

For `COc1ccc(-c2cc(NCC3CCCN(C)C3)cc(-c3ccc(N4CCN(C)CC4)cc3)n2)cc1` (stereo not shown) [Example 67], the IC50 was found to be 1.17 µM.

For the molecule `COc1ccc(-c2cc(NC3CCNCC3F)cc(-c3ccc(N4CCN(C)CC4)cc3)n2)cc1` (stereo not shown) [Example 68], the IC50 is 0.89 µM.

On to `COc1ccc(-c2cc(NCCCN(C)CCCN)cc(-c3ccc(N4CCCCC4)cc3)n2)cc1` [Example 69], for which the IC50 stood at 0.74 µM.

As for `COc1ccc(-c2cc(NCCN(C)CCN)cc(-c3ccc(N4CCNCC4)cc3)n2)cc1` [Example 70], the IC50 worked out at 0.63 µM.

Regarding `COc1ccc(-c2cc(NCCCN(C)CCCN)cc(CCC3CC3)n2)cc1` [Example 71, N-{3-[(3-aminopropyl)(methyl)amino]propyl}-2-(2-cyclopropylethyl)-6-(4-methoxyphenyl)pyridin-4-amine], the IC50 turned out to be 0.57 µM.

Turning to `COc1ccc(-c2cc(NCCCN3CCNCC3)cc(-c3ccc(N4CCN(C)CC4)cc3)n2)cc1` [Example 72], the IC50 is 0.55 µM.

Take `COc1ccc(-c2cc(NCCOCCN)cc(-c3ccc(N4CCNCC4)cc3)n2)cc1` [Example 73, N-(2-(2-aminoethoxy)ethyl)-2-(4-methoxyphenyl)-6-(4-(piperazin-1-yl)phenyl)pyridin-4-amine]: the IC50 is 0.49 µM.

For the molecule `COc1ccc(-c2cc(NCCN3CCNCC3)cc(-c3ccc(N4CCNCC4)cc3)n2)cc1` [Example 74], the IC50 is 0.49 µM.

Take `COc1ccc(-c2cc(N[C@@H]3CCNC[C@@H]3OC)cc(-c3ccc(N4CCN(C)CC4)cc3)n2)cc1` [Example 75]: the IC50 was found to be 0.36 µM.

`COc1ccc(-c2cc(NCCCN(C)CCCN)cc(-c3ccc(N4CCN(C)C(F)C4)cc3)n2)cc1` (stereo not shown) [Example 76]: the IC50 was 0.23 µM.

`CN(CCCN)CCCNc1cc(-c2ccc(-c3ccncc3)cc2)nc(-c2ccc(N3CCNCC3)cc2)c1` [Example 77]: the IC50 was determined as 0.13 µM.

Regarding `COc1ccc(-c2cc(NCCCN(C)CCCN)nc(-c3ccc(N4CCNCC4)cc3)n2)cc1` [Example 78, N-{3-[(3-aminopropyl)(methyl)amino]propyl}-6-(4-methoxyphenyl)-2-[4-(piperazin-1-yl)phenyl]pyrimidin-4-amine], the IC50 is 0.2 µM.

Consider `COc1ccc(-c2cc(NCCCN(C)C)cc(-c3ccc(OCCCN(C)C)cc3)n2)cc1` [Example 80], for which the IC50 came to 0.21 µM.

As to `COc1ccc(-c2cc(NCCCN(C)C)cc(-c3ccc(OCCCN(C)C)nc3)n2)cc1` [Example 81], the IC50 amounted to 0.72 µM.

`CN(C)CCCNc1cc(-c2ccc(OCCCN3CCCC3)cc2)nc2ccccc12` [Example 82]: the IC50 stood at 0.11 µM.

As to `COc1cc2c(NCCCN(C)C)ccnc2cc1OCCN1CCCC1` [Example 83], the IC50 was found to be 0.19 µM.

Take `CN(C)CCCNc1cc(-c2ccc(OCCn3cccn3)cc2)nc2ccccc12` [Example 84]: the IC50 came to 0.55 µM.

On to `N[C@H]1C[C@H](Nc2cc(-c3ccc(N4CCNCC4)cc3)nc3ccsc23)C1` [Example 85, (1r,3r)-N1-(5-(4-(piperazin-1-yl)phenyl)thieno[3,2-b]pyridin-7-yl)cyclobutane-1,3-diamine], for which the IC50 turned out to be 0.16 µM.

As for `NCCCNc1cc(-c2ccc(N3CCNCC3)cc2)nc2ccsc12` [Example 86], the IC50 is 0.2 µM.

As to `NCCCNc1n[nH]c2cc(-c3ccc(N4CCNCC4)cc3)ccc12` [Example 87], the IC50 turned out to be 0.15 µM.

As to `COc1ccc(-c2cc(N[C@H]3C[C@H](N)C3)cc(-c3cccc(OCCN4CCCC4)c3)n2)cc1` [Example 88, trans-N1-(2-(3-(2-(pyrrolidin-1-yl)ethoxy)phenyl)-6-(4-methoxyphenyl)pyridin-4-yl)cyclobutane-1,3-diamine], the IC50 was 0.18 µM.

`COc1ccc(-c2cc(NCCCN(C)C)cc(-c3cccc(OCCCN(C)C)c3)n2)cc1` [Example 89, 2-(3-(3-(dimethylamino)propoxy)phenyl)-N-(3-(dimethylamino)propyl)-6-(4-methoxyphenyl)pyridin-4-amine]: the IC50 was 0.17 µM.

For the molecule `COc1ccc(-c2cc(N[C@H]3CC[C@H](N)CC3)cc(-c3cccc(OCCN4CCCC4)c3)n2)cc1` [Example 90], the IC50 is 0.09 µM.

For `COc1ccc(-c2cc(NCCCN(C)C)cc(-c3cccc(OCCN4CCCC4)c3)n2)cc1` [Example 91], the IC50 stood at 0.16 µM.

For `COc1ccc(-c2cc(NCCCN(C)C)cc(-c3cccc(OCCN(C)C)c3)n2)cc1` [Example 92], the IC50 stood at 0.34 µM.

In the case of `COc1ccc(-c2cc(N[C@H]3CC[C@H](N)CC3)cc(-c3cccc(OCCN(C)C)c3)n2)cc1` [Example 93, trans-N1-(2-(3-(2-(dimethylamino)ethoxy)phenyl)-6-(4-methoxyphenyl)pyridin-4-yl)cyclohexane-1,4-diamine], the IC50 turned out to be 0.11 µM.

Turning to `COc1ccc(-c2cc(N[C@H]3C[C@H](N)C3)cc(-c3ccc(CN(C)CCN(C)C)o3)n2)cc1` [Example 96, N1-{2-[5-({[2-(dimethylamino)ethyl](methyl)amino}methyl)furan-2-yl]-6-(4-methoxyphenyl)pyridin-4-yl}cyclobutane-1,3-diamine], the IC50 was 2.4 µM.

“Cis-N1-(2-(3-(2-(pyrrolidin-1-yl)ethoxy)phenyl)-6-(4-methoxyphenyl)pyridin-4-yl)cyclobutane-1,3-diamine [Example 94]”: the IC50 turned out to be 0.49 µM.

Turning to “Ethyl 4-(2-(4-methoxyphenyl)-6-(4-(piperazin-1-yl)phenyl)pyridin-4-ylamino)piperidine-1-carboxylate [Example 49]”, the IC50 is 5.78 µM.

Take “N^1-(4-(4-methoxyphenyl)-6-(4-(piperazin-1-yl)phenyl)pyridin-2-yl)-N^3,N^3-dimethylpropane-1,3-diamine [Example 79]”: the IC50 was determined as 1.09 µM.

In another assay the target is T1, TDP-43.
Test: not given
As to conditions: using bt-(TG)6 and not bt-TAR32; Biochimie, 2012, 94, 1974-1981; cited from earlier work.
Take `COc1ccc(-c2cc(NCCCN(C)C)c3ccccc3n2)cc1` [Compound I]: the “activity in a TDP-43 alpha-screen” value is “active”.

(Values after patent US20240148722A1, “SMALL MOLECULES THAT BIND TO TDP-43 FOR THE TREATMENT OF ALS AND RELATED DISORDERS” (Biohaven Therapeutics Ltd., priority 2021, published 2024).)
